This is an account of results in publication PMC7582476, “Discovery of Novel Indoleamine 2,3-Dioxygenase 1 (IDO1) and Histone Deacetylase 1 (HDAC1) Dual Inhibitors Derived from the Natural Product Saprorthoquinone” (Molecules, 2020).

For one test, the target named is T1, HDAC1 (Homo sapiens, UniProt Q13547).
T1 construct: purchased BPS Bioscience Inc. 50051
Put plainly: HDAC enzymatic assay. The following applies: mean ± SD of at least two independent assays. The format is biochemical. On the procedure: • (1) Prepare 1× assay buffer (modified Tris Buffer). • (2) Compound serial dilution: Transfer compounds to assay plate by Echo in 100% DMSO. The final fraction of DMSO is 1%. • (3) Prepare enzyme solution in 1× assay buffer. • (4) Add trypsin and Ac-peptide substrate in 1× assay buffer to make the substrate solution. • (5) Transfer 15 μL of enzyme solution to assay plate or for low control transfer 15 μL of 1× assay buffer. • (6) Incubate at room temperature for 15 min. • (7) Add 10 μL of substrate solution to each well to start reaction. • (8) Incubate at room temperature for 60 min. • (9) Read the plate on Synergy MX with excitation at 355 nm and emission at 460 nm. • (10) Curve fitting: Fit the data in Excel to obtain inhibition values using Equation (1).
Inh% = (Max − Signal)/(Max − Min) × 100(1)
Fit the data in XL-Fit to obtain IC50 values using Equation (2); Y = Bottom + (Top − Bottom)/(1 + 10^((LogIC50 − X) × Hill Slope))(2)
Y is %inhibition and X is compound concentration.

The target in another test is T2, IDO1 (Homo sapiens, UniProt P14902).
T2 construct: No. 20160706
Put plainly: IDO1 enzymatic assay. The format is biochemical. The following applies: for inhibition at 10 µM: Tables 2 and 3, read-out: IDO1 % Inhibition at 10 μM (converted); for IC50: mean ± SD of at least two independent assays. On the procedure:
(1) Prepare 100× compound of the final desired highest inhibitor concentration in reaction by 100% DMSO. For example, if compounds test at 10 μM, then prepare 1 mM of compound solution in this step. Then dilute compound with DMSO in 3-fold mode to obtain different concentrations. Mark as source plate. (2) Add 100 μL of 100% DMSO to column 1 and column 12 for background control and no compound high control respectively.
Transfer 2 μL of each well from the 96-well source plate to a 96-well assay plate.
• (3) Enzyme Reaction • Prepare 2× enzyme solution. Add IDO-1 in assay buffer. • Prepare 2× substrate solution. Add L-tryptophan, ascorbate, methylene blue, catalase in the assay buffer. • Assay plate already contains 2 μL of compound in 100% DMSO. • Transfer 2× enzyme solution to the assay plate. Add 100 μL of 2× enzyme solution to each well of the 96-well assay plate. • Incubate at room temperature for 10 min. • Transfer […] to each well of the 96-well assay plate. • Read OD321 kinetically by Spectramax (Molecular Devices, LLC, San Jose, CA, USA). • (4) Curve Fitting • Copy data from Spectramax program. Percent inhibition = (max-conversion)/(max − min) × 100. “max” stands for high control; “min” stands for low control. • Fit the data in XL-Fit to obtain IC50 values. Equation used is: Y = Bottom + (Top − Bottom)/(1 + 10^((LogIC50 − X) × Hill Slope)

A further test deals with A549 cell line. Put plainly: Anti-proliferation assay in A549 cell line (CellTiter-Glo). The format is cell-based. To be noted: Homo sapiens; A549 cells, 48 h, CTG assay. As for the experimental part: Cell viability was measured by the CellTiter-Glo Luminescent (CTG) assay. A549 cells (ATCC, Cat. No.CCL-185) were seeded (2000 cells/well) in 96-well plates and cells were left to incubate at 37 °C for 24 h. After 24 h, prepare compounds with 5-fold dilution in DMSO to the compound plate (200-fold of the final concentration) and transfer 5 μL from the compound plate to 95 μL intermediate medium in the intermediate plate (10-fold of the final concentration). Then transfer 10 μL from the intermediate plate to the cell plates. The final DMSO is 0.5%. After continuing to incubate for 48 h, add 50 μL CTG reagent to each well and read luminescence according to CTG product manual.
In general terms: ATP-based viability assays read luminescence as a measure of living cells.

T1 sequence (Q13547 whole entry): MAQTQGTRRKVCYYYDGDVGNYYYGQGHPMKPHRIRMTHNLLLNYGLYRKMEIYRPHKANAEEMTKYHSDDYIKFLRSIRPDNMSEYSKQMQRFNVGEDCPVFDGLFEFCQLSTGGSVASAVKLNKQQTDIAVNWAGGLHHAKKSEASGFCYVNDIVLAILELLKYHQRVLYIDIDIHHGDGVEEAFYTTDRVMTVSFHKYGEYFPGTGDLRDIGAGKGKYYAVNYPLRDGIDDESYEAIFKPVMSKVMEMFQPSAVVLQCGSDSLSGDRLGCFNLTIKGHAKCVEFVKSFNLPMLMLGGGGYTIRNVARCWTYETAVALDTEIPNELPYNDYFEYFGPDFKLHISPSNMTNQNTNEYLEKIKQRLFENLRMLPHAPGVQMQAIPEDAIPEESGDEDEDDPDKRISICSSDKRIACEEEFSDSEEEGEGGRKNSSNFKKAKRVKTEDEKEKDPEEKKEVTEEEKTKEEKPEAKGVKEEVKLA
T2 sequence (P14902 whole entry): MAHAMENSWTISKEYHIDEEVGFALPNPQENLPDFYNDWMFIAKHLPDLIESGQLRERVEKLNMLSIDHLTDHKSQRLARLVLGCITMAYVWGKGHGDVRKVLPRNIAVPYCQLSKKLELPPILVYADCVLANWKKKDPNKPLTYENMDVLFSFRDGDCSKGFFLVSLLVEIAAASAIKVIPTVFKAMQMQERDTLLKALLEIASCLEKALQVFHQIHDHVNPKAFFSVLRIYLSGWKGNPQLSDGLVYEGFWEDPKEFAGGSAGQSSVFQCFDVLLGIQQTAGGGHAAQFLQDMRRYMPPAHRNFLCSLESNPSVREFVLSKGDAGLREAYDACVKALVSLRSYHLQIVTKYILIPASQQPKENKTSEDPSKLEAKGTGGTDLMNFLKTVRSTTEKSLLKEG

For `Cc1ccc2c(c1CCC(=O)Nc1ccc(F)cc1N)C(=O)C(=O)C(C(C)C)=C2` [Compound 27c, N-(2-amino-4-fluorophenyl)-3-(6-isopropyl-2-methyl-7,8-dioxo-7,8-dihydronaphthalen-1-yl)propanamide], the IC50 (usually the concentration that inhibits the measured activity by half) was above 100 µM at HDAC1 and above 20 µM in the test with A549 cell line. The inhibition – broadly, how much of the control response was suppressed – at 10 µM on IDO1 was 56%.

As to `Cc1ccc2c(c1CCC(=O)NCCC(=O)Nc1ccccc1N)C(=O)C(=O)C(C(C)C)=C2` [Compound 33a, N-(2-aminophenyl)-3-(3-(6-isopropyl-2-methyl-7,8-dioxo-7,8-dihydronaphthalen-1-yl)propanamido)-propanamide], the IC50 at HDAC1 was above 100 µM; in the test with A549 cell line it was above 20 µM. Moreover, on IDO1, the inhibition at 10 µM was 89%.

In the case of `Cc1ccc2c(c1CCC(=O)NCCCC(=O)Nc1ccccc1N)C(=O)C(=O)C(C(C)C)=C2` [Compound 33b, N-(2-Aminophenyl)-4-(3-(6-isopropyl-2-methyl-7,8-dioxo-7,8-dihydronaphthalen-1-yl)propanamido)-butanamide], the IC50 at HDAC1 stood at 34.9 ± 0.75 µM; at IDO1, 0.58 ± 0.11 µM; with A549 cell line it was 19.1 µM. Also, the inhibition at 10 µM on IDO1 was 80%.

For the molecule `Cc1ccc2c(c1CCC(=O)NCCCCC(=O)Nc1ccccc1N)C(=O)C(=O)C(C(C)C)=C2` [Compound 33c, N-(2-Aminophenyl)-5-(3-(6-isopropyl-2-methyl-7,8-dioxo-7,8-dihydronaphthalen-1-yl)propanamido)-pentanamide], the 50% inhibitory concentration (IC50) at HDAC1 was 39.5 ± 0.74 µM; against IDO1, 0.55 ± 0.02 µM; in the test on A549 cell line, above 20 µM. At IDO1, the inhibition at 10 µM is 90%.

For the molecule `Cc1ccc2c(c1CCC(=O)NCCCCCC(=O)Nc1ccccc1N)C(=O)C(=O)C(C(C)C)=C2` [Compound 33d, N-(2-Aminophenyl)-6-(3-(6-isopropyl-2-methyl-7,8-dioxo-7,8-dihydronaphthalen-1-yl)propanamido) hexanamide], the results for the IC50 at HDAC1, against IDO1 and in the test with A549 cell line were 0.46 ± 0.07 µM, 0.71 ± 0.03 µM and above 20 µM, respectively. For the same molecule, on IDO1, the inhibition at 10 µM was 82%.
